Test results reported in patent US7115642B2, “Substituted diphenyl isoxazoles, pyrazoles and oxadiazoles useful for treating HCV infection” (priority 2003, dated 2006).
Where two headings read alike, the source gives them in different places.

System: HCV replicon (5-2 Luc replicon-comprising cells)
Test: HCV replicon assay (luciferase)
Assay type: cell-based, Hepatitis C virus
Settings: 5-2 Luc replicon cells, luciferase readout, read-out: Replicon IC50
Text: In one embodiment, the inhibitory activity of the compounds can be confirmed in a replicon assay that assesses the ability of a test compound to block or inhibit HCV replication in replicon cells. One example of a suitable replicon assay is the liver cell-line Huh 7-based replicon assay described in Lohmann et al., 1999, Science 285:110–113. A specific example of this replicon assay which utilizes luciferase translation is provided in the Examples Section. In one embodiment of this assay, the amount of test compound that yields a 50% reduction in translation as compared to a control cell (IC50) may be determined.
The inhibitory activity of certain exemplary compounds of the invention was confirmed using an HCV replicon assay. The HCV replicon can include such features as the HCV 5′ untranslated region including the HCV IRES, the HCV 3′ untranslated region, selected HCV genes encoding HCV polypeptides, selectable markers, and a reporter gene such as luciferase, GFP, etc. In the assay, actively dividing 5-2 Luc replicon-comprising cells (obtained from Ralf Bartenschlager; see Lohmann et al., 1999, Science 285:110–113) were seeded at a density of between about 5,000 and 7,500 cells/well onto 96 well plates (about 90 μl of cells per well) and incubated at 37° C. and 5% CO2 for 24 hours. Then, the test compound (in a volume of about 10 μl) was added to the wells at various concentrations and the cells were incubated for an additional 24 hours before luciferase assay. Briefly, the Bright-Glo reagent was diluted 1:1 with PBS and 100 μl of diluted reagent was added to each well. After 5 min of incubation at room temperature, luciferin emission was quantified with a luminometer. In this assay, the amount of test compound that yielded a 50% reduction in luciferase activity (IC50) was determined.
In TABLE 1, a value of “+” indicates an IC50 of 10 μM or less in the specified assay; a value of “−” indicates an IC50 of greater than 10 μM in the specified assay.

Structure (SMILES) | IC50 | IC50 (Hepatitis C virus)
CN(C)C1CCN(c2cccc(Cl)c2-c2cc(-c3cccc(NC(=O)C(Cl)Cl)c3)on2)C1 (racemic) [Compound 132, (±)-2,2-Dichloro-N-[3-[3-[2-chloro-6-(3-dimethylamino-N-pyrrolidino)phenyl]-5-isoxazolyl]-phenyl]Acetamide] | < 10 µM | –
Cc1cc(OCCN2CCOCC2)cc(C)c1-c1cc(-c2cccc(NC(=O)C(Cl)Cl)c2)on1 [Compound 23, 2,2-Dichloro-N-[3-[3-[2,6-dimethyl-4-(N-morpholino-2-ethyleneoxy)phenyl]-5-isoxazolyl]phenyl]Acetamide] | < 10 µM | –
CN(C(=O)C(Cl)Cl)c1cccc(-c2cc(-c3c(Cl)cccc3Cl)no2)c1 [Compound 57, 2,2-Dichloro-N-[3-[3-(2,6-dichlorophenyl)-5-isoxazolyl]phenyl]-N-methyl Acetamide] | < 10 µM | –
O=C(Nc1cccc(-c2cc(-c3c(Cl)cc(OCCCN4CCOCC4)cc3Cl)no2)c1)C(Cl)Cl [Compound 73, 2,2-Dichloro-N-[3-[3-[2,6-dichloro-4-(N-morpholinopropyleneoxy)phenyl]-5-isoxazolyl]-phenyl]Acetamide] | < 10 µM | –
O=C(Nc1cccc(-c2noc(-c3c(Cl)cccc3Cl)n2)c1)C(Cl)Cl [Compound 87, 2,2-Dichloro-N-[3-[5-(2,6-dichlorophenyl)-3-(1,2,4-oxadiazolyl)]phenyl]Acetamide] | < 10 µM | –
O=C(Nc1cccc(-c2cc(-c3c(Cl)cccc3OCCN3CCOCC3)no2)c1)C(Cl)Cl [Compound 95, 2,2-Dichloro-N-[3-[3-[2-chloro-6-(N-morpholino-2-ethyleneoxy)phenyl]-5isoxazolyl]-phenyl]Acetamide] | < 10 µM | –
CN1CCN(c2cccc(Cl)c2-c2cc(-c3cccc(NC(=O)C(Cl)Cl)c3)on2)CC1 [Compound 99, 2,2-Dichloro-N-[3-[3-[2-chloro-6-(4-methylpiperazino)phenyl]-5-isoxazolyl]phenyl]Acetamide] | – | < 10 µM
O=C(Nc1ccc(S(=O)(=O)NN2CCOCC2)c(-c2cc(-c3c(Cl)cccc3Cl)no2)c1)C(Cl)Cl [Compound 107, 2,2-Dichloro-N-[3-[3-(2,6-dichlorophenyl)-5-isoxazolyl]4-(N-morpholinosulfamoyl)-phenyl]Acetamide] | – | < 10 µM
COC(=O)c1ccccc1-c1cc(-c2cccc(NC(=O)C(Cl)Cl)c2)on1 [Compound 115, 2,2-Dichloro-N-[3-[3-(2-carbomethoxy)phenyl-5-isoxazolyl]phenyl]Acetamide] | < 10 µM | –
O=C(Nc1cccc(-c2cc(-c3c(Cl)cccc3-n3ccnc3)no2)c1)C(Cl)Cl [Compound 117, 2,2-Dichloro-N-[3-[3-[2-chloro-6-(N-imidazolyl)phenyl]-5-isoxazolyl]phenyl]Acetamide] | – | < 10 µM
O=C(Nc1cccc(-c2cc(-c3ccccc3-c3ccccc3)no2)c1)C(Cl)Cl [Compound 123, 2,2-Dichloro-N-[3-[3-(2-phenyl)phenyl-5-isoxazolyl]phenyl]Acetamide] | < 10 µM | –
O=C(Nc1cccc(-c2cc(-c3c(Cl)cc(OCCN4CCCCC4)cc3Cl)no2)c1)C(Cl)Cl [Compound 125, 2,2-Dichloro-N-[3-[3-[2,6-dichloro-4-(N-piperidinylethylenoxy)phenyl]-5-isoxazolyl]-phenyl]Acetamide] | < 10 µM | –
CN(C)CCN(C)c1cccc(Cl)c1-c1cc(-c2cccc(NC(=O)C(Cl)Cl)c2)on1 [Compound 131, 2-Dichloro-N-[3-[3-[2-chloro-6-(N,N-dimethylethylene-N′-methylamino)phenyl]-5-isoxazolyl]-phenyl]Acetamide] | < 10 µM | –
O=C(Nc1cccc(-c2cc(-c3c(Cl)cc(Cl)cc3OCCN3CCOCC3)no2)c1)C(Cl)Cl [Compound 143, 2,2-Dichloro-N-[3-[3-[2,4-dichloro-6-(N-morpholino-2-ethyleneoxy)phenyl]-5-isoxazolyl]-phenyl]Acetamide] | > 10 µM | –
CCOC(=O)C1CCN(c2cccc(Cl)c2-c2cc(-c3cccc(NC(=O)C(Cl)Cl)c3)on2)CC1 [Compound 151, 2,2-Dichloro-N-[3-[3-[2-chloro-6-(4-carboethoxypiperidino)phenyl]-5-isoxazolyl]-phenyl]Acetamide] | – | > 10 µM
CS(=O)(=O)c1cccc(F)c1-c1cc(-c2cccc(NC(=O)C(Cl)Cl)c2)on1 [Compound 153, 2,2-Dichloro-N-[3-[3-(2-fluoro-6-methylsulfonyl)phenyl-5-isoxazolyl]phenyl]Acetamide] | > 10 µM | –
O=C(O)c1ccccc1-c1cc(-c2cccc(NC(=O)C(Cl)Cl)c2)on1 [Compound 157, 2,2-Dichloro-N-[3-[3-(2-carboxyphenyl)-5-isoxazolyl]phenyl]Acetamide] | – | > 10 µM
O=C(Nc1cc(-c2cc(-c3c(Cl)cccc3Cl)no2)ccc1N1CCOCC1)C(Cl)Cl [Compound 169] | > 10 µM | –

Structure (SMILES) | IC50 | IC50 (Hepatitis C virus)
O=C(Nc1cc(-c2cc(-c3c(Cl)cccc3Cl)no2)ccc1OCCN1CCOCC1)C(Cl)Cl [Compound 171, 2,2-Dichloro-N-[3-[3-(2,6-dichlorophenyl)-5-isoxazolyl]-6-(N-morpholino-2-ethyleneoxy)phenyl]Acetamide] | > 10 µM | –
COc1ccc(-c2cc(-c3c(Cl)cccc3Cl)no2)cc1NC(=O)C(Cl)Cl [Compound 173, 2,2-Dichloro-N-[3-[3-(2,6-dichlorophenyl)-5-isoxazolyl]-6-methoxyphenyl]Acetamide] | – | < 10 µM
O=C(Nc1cccc(-c2cc(-c3c(Cl)cccc3N3CCOCC3)no2)c1)C(Cl)Cl [Compound 500] | < 10 µM | –
O=C(Nc1cccc(-c2cc(-c3c(Cl)cccc3N3CCN(c4ccccn4)CC3)no2)c1)C(Cl)Cl [Compound 501] | < 10 µM | –
O=C(Nc1cccc(-c2cc(-c3c(Cl)cccc3N3CCCCC3)no2)c1)C(Cl)Cl [Compound 503] | < 10 µM | –
NC1CCN(c2cccc(Cl)c2-c2cc(-c3cccc(NC(=O)C(Cl)Cl)c3)on2)C1 (centres unmarked) [Compound 504] | < 10 µM | –
CCNc1cccc(Cl)c1-c1cc(-c2cccc(NC(=O)C(Cl)Cl)c2)on1 [Compound 507] | < 10 µM | –
CCN(CC)c1cccc(Cl)c1-c1cc(-c2cccc(NC(=O)C(Cl)Cl)c2)on1 [Compound 508] | < 10 µM | –
CC(C)(C)OC(=O)N1CCN(c2cccc(Cl)c2-c2cc(-c3cccc(NC(=O)C(Cl)Cl)c3)on2)CC1 [Compound 510] | < 10 µM | –
O=C(Nc1cccc(-c2cc(-c3c(Cl)cccc3N3CCNCC3)no2)c1)C(Cl)Cl [Compound 511] | < 10 µM | –
[N-]=[N+]=Nc1cccc(Cl)c1-c1cc(-c2cccc(NC(=O)C(Cl)Cl)c2)on1 [Compound 512] | < 10 µM | –
O=C(Nc1cccc(-c2cc(-c3c(Cl)cccc3N3CCN(C(=O)c4ccccn4)CC3)no2)c1)C(Cl)Cl [Compound 513] | < 10 µM | –
O=C(Nc1cccc(-c2cc(-c3c(Cl)cccc3N3CCN(S(=O)(=O)c4ccccc4)CC3)no2)c1)C(Cl)Cl [Compound 514] | < 10 µM | –
O=C(Nc1cccc(-c2cc(-c3c(Cl)cccc3N3CCN(c4cnccn4)CC3)no2)c1)C(Cl)Cl [Compound 515] | < 10 µM | –
O=C(Nc1cccc(-c2cc(-c3c(Cl)cccc3N3CCN(c4ccccc4)CC3)no2)c1)C(Cl)Cl [Compound 516] | < 10 µM | –
O=C(Nc1cccc(-c2cc(-c3c(Cl)cccc3N3CCN(c4ncccn4)CC3)no2)c1)C(Cl)Cl [Compound 517] | < 10 µM | –
O=C(Nc1cccc(-c2cc(-c3c(Cl)cccc3N3CCN(C(=O)c4ccco4)CC3)no2)c1)C(Cl)Cl [Compound 519] | < 10 µM | –
